# Test results published in PubChem BioAssay AID2745 (NMMLSC, 2010).
# Values joined by “and” are separate entries in the source; they are usually repeats but may differ in a detail not shown here. Equal values may be shown once. Active and inactive are the calls of the source. No rule for the calls is given here.
# Test system: S. cerevisiae LAP4-GFP reporter, flow cytometry fluorescence
# Assay: concentration series on yeast TOR reporter LAP4 – cell-based, MLPCN hits, flow cytometry, dose response (AID 2745);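 also: yeast exposed to compound for three hours at 30 degrees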
# Conditions: not given
row,SMILES,EC50
1,CN(Cc1cnc2nc(N)nc(N)c2n1)c1ccc(C(=O)N[C@@H](CCC(=O)O)C(=O)O)cc1,5.18 µM
2,COc1ccc([N+](=O)[O-])c(S(=O)(=O)c2ccc(Cl)cc2)n1,1.99 µM
3,O=C1ON=C(c2ccccc2)/C1=C\c1ccco1,3.67 µM
4,O=C1NC(=O)N(Cc2ccc(F)cc2)C(=O)/C1=C/c1cccs1,3.41 µM
5,Cc1ccccc1N=Nc1ccc(O)c2ncccc12,7.96 µM
6,O=C(COc1ccc(F)cc1Cl)Nc1nc(-c2ccccn2)cs1,2.98 µM
7,COc1ccccc1OCCCc1c(C)n[nH]c1C,20.1 µM
8,O=[N+]([O-])c1ccc(O)c2ncccc12,0.607 µM and 0.752 µM
9,O=[N+]([O-])c1cc(Cl)cc(/C=N\Nc2ccccn2)c1O,3.33 µM
10,Cn1c(=O)c(C(=O)NNC(=O)c2ccc(Br)cc2)c(O)c2ccccc21,0.762 µM
11,N/C(Cc1ccc(Cl)cc1Cl)=N\OC(=O)c1cccs1,4.48 µM
12,CC(C)(C)C(=O)NC(=S)NNC(=O)c1ccc(-c2ccccc2)cc1,7.51 µM
13,Cc1cccc(C(=O)NC(=S)NNC(=O)Cc2ccccc2)c1,10.9 µM
14,CCOC(=O)c1cc(-c2ccc(/C=C3/C(=O)NC(=O)C(C#N)=C3C)o2)ccc1Cl,1.36 µM
15,Cc1cccc(Nc2nc(-c3ccccn3)cs2)n1,3.79 µM
16,O=C1NC(=O)N(Cc2ccco2)C(=O)/C1=C/c1ccc(-c2cccc([N+](=O)[O-])c2)o1,6.36 µM
17,O=C(Nc1ccccc1)c1nnsc1S(=O)(=O)c1ccc(Cl)cc1,0.564 µM
18,COc1cccc2sc(Nc3nc(-c4ccccn4)cs3)nc12,1.36 µM
19,c1ccc(-c2cccc(-c3ccccn3)n2)nc1,3.9 µM
20,O=C(Nc1nc(-c2ccccn2)cs1)C1COc2ccccc2O1 (stereo not drawn),3.9 µM
21,O=C1C=CC(=O)N1c1ccc(N2CCCCC2)cc1,1.24 µM
22,O=C1C=C(c2ccccc2)C(=O)N1Nc1ccccc1,1.62 µM
23,CC1=CC(=O)C(C(C)C)=C/C1=N/OS(=O)(=O)c1ccccc1,9.59 µM
24,Clc1cccc(CN2COc3c(cc(Cl)c4cccnc34)C2)c1,8.55 µM
25,N/C(Cc1ccc(Cl)c(Cl)c1)=N\OC(=O)c1cccs1,5.04 µM
26,O=c1cc(CSc2ccc(Cl)cc2)nc(-c2ccccn2)[nH]1,6.28 µM

row,SMILES,EC50
1,Nc1ccccc1C#CC(=O)c1ccccc1,8.31 µM
2,CCN1/C(=C/C(C)=C/c2sc3ccccc3[n+]2CC)Sc2ccccc21,4.21 µM
3,Cc1cc(C2CCCCC2)n(O)c(=O)c1,5.33 µM
4,Cc1ccsc1/C=N/Nc1ncc(Cl)cc1Cl,6.19 µM
5,Cc1cccc2c1NC(=O)/C2=C\C(=O)c1cccs1,5.59 µM
6,CC(Oc1ccc(Cl)cc1)C(=O)NNC(=S)NC(=O)c1ccco1 (stereo not drawn),7.2 µM
7,Cc1[nH]n(-c2ccccc2)c(=O)c1C(c1ccccc1[N+](=O)[O-])C(C#N)C#N (stereo not drawn),7.67 µM
8,O=[N+]([O-])c1cc(Cl)c2cccnc2c1O,0.859 µM
9,COc1cc(SSc2cc(OC)cc([N+](=O)[O-])c2N)c(N)c([N+](=O)[O-])c1,8.26 µM
10,O=C(C#Cc1ccccc1)c1cccc([N+](=O)[O-])c1,7.75 µM
11,O=C(COc1ccccc1)NNC(=S)NC(=O)c1ccc(Cl)cc1Cl,17.8 µM
12,CCn1c(=O)c(C(=O)Nc2nc3ccccc3[nH]2)c(O)c2ccccc21,0.45 µM
13,Cc1cc(C)c(S(=O)(=O)ON2C(=O)c3ccccc3C2=O)cc1C,3.12 µM
14,CC(C)Oc1ccc(C(=O)/C=C2/C(=O)Nc3ccccc32)cc1,9.41 µM
15,Cc1cc(C(=O)Nc2nc(-c3ccccn3)cs2)ccc1[N+](=O)[O-],6.15 µM
16,O=c1oc2cc(Oc3c([N+](=O)[O-])cc(C(F)(F)F)cc3[N+](=O)[O-])ccc2c2c1CCCC2,3.04 µM
17,COc1cccc(/C=N/Nc2ccc([N+](=O)[O-])cn2)c1O,5.73 µM
18,N#Cc1nccnc1S(=O)(=O)c1cccs1,14 µM
19,CCc1ccc(OCC(=O)NNC(=S)NC(=O)C2CC2)c(Br)c1,5.45 µM
20,Cc1c(Cc2ccccc2)c(NCCN(C)C)n2c(nc3ccccc32)c1C#N,29.9 µM
21,Cc1ccc2nc(Cl)c3nnnn3c2c1,3.84 µM
22,O=C(OCn1ncc(Br)c(Br)c1=O)c1c(F)cccc1F,16.9 µM
23,COc1ccc(C(=O)/C=C2/C(=O)Nc3ccccc32)cc1,3.38 µM
24,O=[N+]([O-])c1cc(O)c2ncccc2c1,9.88 µM
25,Cc1ccc(C2=NOC(=O)/C2=C\c2ccc(C)o2)cc1,4.47 µM
26,N/C(Cc1ccc(Cl)cc1)=N\OC(=O)c1ccccc1,4.4 µM

row,SMILES,EC50
1,Cc1cccnc1Nc1nc(-c2ccccn2)cs1,3.7 µM
2,Cc1ccc(S(=O)(=O)c2ccc([N+](=O)[O-])cn2)cc1,14.9 µM
3,O=C(Oc1c(Cl)cc(Cl)c2cccnc12)c1cccc([N+](=O)[O-])c1,2.02 µM
4,O=C(Oc1c(Cl)cc(Cl)c2cccnc12)c1ccco1,2.46 µM
5,COc1ccc(C(c2c(C)[nH]n(C(N)=S)c2=O)C(C#N)C#N)cc1 (stereo not drawn),2.08 µM
6,CS(=O)(=O)c1nc(-c2cccs2)cc(C(F)(F)F)n1,30.5 µM
7,CCc1ccc2c(c1)/C(=C/C(=O)c1cccs1)C(=O)N2,4.07 µM
8,CCOC(=O)CSC1=NC(=O)/C(=C\c2ccc(Cl)cc2)S1,27 µM
9,O=[N+]([O-])c1cc(F)c2cccnc2c1O,1.19 µM
10,O=C(Nc1ccc(Cl)cc1)ON=C1CCCC1,3.95 µM
11,N/C(Cc1ccc(Cl)cc1)=N\OC(=O)c1cccc2ccccc12,1.88 µM
12,O=C(NC(=S)NNC(=O)c1cnccn1)c1ccc(F)cc1,7.94 µM
13,O=[N+]([O-])c1ccc(O)c(/C=N/Nc2ccccn2)c1,12.5 µM
14,O=C(OCn1ncc(Br)c(Br)c1=O)c1ccc(F)cc1,19.1 µM
15,O=C1ON=C(c2ccccc2)/C1=C/c1ccco1,4.26 µM
16,CCCOc1ccc(C(=O)NNC(=S)NC(=O)CC)cc1,11.5 µM
17,CC(=O)SC(C[N+](=O)[O-])c1cn(C(C)=O)c2ccccc12 (stereo not drawn),10.7 µM
18,CCOc1ccc(N2C(=O)/C(=C\c3cccs3)C(=O)NC2=S)cc1,1.96 µM
19,O=C1c2ccccc2C(=O)C2OC12 (stereo not drawn),19.6 µM
20,O=C1NC(=O)C(=Cc2ccc(-c3ccc(Cl)cc3)o2)C(=O)N1,1.41 µM
21,CCc1cc(C(=O)Nc2nc(-c3ccccn3)cs2)sc1C,5.96 µM
22,CCCCS(=O)(=O)/C=C\C=C/S(=O)(=O)CCCC,2.54 µM
23,CCCCCCCCC/C(=N\O)c1ccccn1,6.13 µM
24,O=C(CCc1ccccc1)NNC(=S)NC(=O)c1ccccc1,32.2 µM
25,CC(=O)c1ccc(N2CCN(C(=O)c3ccc(Br)cc3)CC2)c(F)c1,9.91 µM

# Test system: not listed separately
# Assay: as above
# Conditions: S. cerevisiae LAP4-GFP reporter, flow cytometry fluorescence; at 33 µM (top of the series)
row,SMILES,LAP4-GFP fluorescence (kMESF)
1,CN(Cc1cnc2nc(N)nc(N)c2n1)c1ccc(C(=O)N[C@@H](CCC(=O)O)C(=O)O)cc1,10.8 kMESF (inactive)
